According to patent US12486274B2, “Substituted pyrazolo-pyrimidines and uses thereof” (Verge Analytics, Inc., priority 2020, dated 2025):
Counter-ions that a name gives are not always drawn.

Biological target: Full length human recombinant PIKFYVE (Homo sapiens (Human), UniProt Q9Y2I7)
Experiment: Inhibition of PIKfyve (microfluidic electrophoresis kinase assay)
Type: biochemical
Settings: 2 nM enzyme, PI3P/PS substrate, 3 h at room temperature, 12 concentrations
Protocol: Full length human recombinant PIKFYVE expressed in baculovirus expression system as N-terminal GST-fusion protein (265 kDa) was obtained from Carna Biosciences (Kobe, Japan). The kinase substrate was prepared by mixing and sonicating fluorescently-labeled phosphatidylinositol 3-phosphate (PI3P) with phospho-L-serine (PS) at a 1:10 ratio in 50 mM HEPES buffer pH7.5.
The kinase reactions were assembled in 384-well plates (Greiner) in a total volume of […] as follows. Kinase protein was pre-diluted in an assay buffer comprising 25 mM HEPES, pH 7.5, 1 mM DTT, 2.5 mM MgCl2, and 2.5 mM MnCl2, and 0.005% Triton X-100, and dispensed into a 384-well plate (10 μL per well). Test compounds were serially pre-diluted in DMSO and added to the protein samples by acoustic dispensing (Labcyte Echo). The concentration of DMSO was equalized to 1% in all samples. All test compounds were tested at 12 concentrations. Apilimod was used as a reference compound and was tested in identical manner in each assay plate. Control samples (0%-inhibition, in the absence of inhibitor, DMSO only) and 100%-inhibition (in the absence of enzyme) were assembled in replicates of four and were used to calculate %-inhibition in the presence of compounds. The reactions were initiated by addition of 10 μL of 2× PI3P/PS substrate supplemented with ATP. The final concentration of enzyme was 2 nM, the final concentration of ATP was 10 mM, and the final concentration of PI3P/PS substrate was 1 μM (PI3P). The kinase reactions were allowed to proceed for 3 h at room temperature. Following incubation, the reactions were quenched by addition of […] of termination buffer (100 mM HEPES, pH 7.5, 0.01% Triton X-100, 20 mM EDTA). Terminated plates were analyzed on a microfluidic electrophoresis instrument (Caliper LabChip® 3000, Caliper Life Sciences/Perkin Elmer). The change in the relative fluorescence intensity of the PI (3) P substrate and PI (3,5) P product peaks was measured. The activity in each test sample was determined as the product to sum ratio (PSR): P/(S+P), where P is the peak height of the product, and S is the peak height of the substrate. Percent inhibition (Pinh) was determined using the following equation: Pinh=(PSR0% inh−PSRcompound)/(PSR0% inh−PSR100% inh)*100 in which PSRcompound is the product/sum ratio in the presence of compound, PSR0% inh is the product/sum ratio in the absence of compound, and the PSR100% inh is the product/sum ratio in the absence of the enzyme.

Full length human recombinant PIKFYVE, sequence (Q9Y2I7 whole entry): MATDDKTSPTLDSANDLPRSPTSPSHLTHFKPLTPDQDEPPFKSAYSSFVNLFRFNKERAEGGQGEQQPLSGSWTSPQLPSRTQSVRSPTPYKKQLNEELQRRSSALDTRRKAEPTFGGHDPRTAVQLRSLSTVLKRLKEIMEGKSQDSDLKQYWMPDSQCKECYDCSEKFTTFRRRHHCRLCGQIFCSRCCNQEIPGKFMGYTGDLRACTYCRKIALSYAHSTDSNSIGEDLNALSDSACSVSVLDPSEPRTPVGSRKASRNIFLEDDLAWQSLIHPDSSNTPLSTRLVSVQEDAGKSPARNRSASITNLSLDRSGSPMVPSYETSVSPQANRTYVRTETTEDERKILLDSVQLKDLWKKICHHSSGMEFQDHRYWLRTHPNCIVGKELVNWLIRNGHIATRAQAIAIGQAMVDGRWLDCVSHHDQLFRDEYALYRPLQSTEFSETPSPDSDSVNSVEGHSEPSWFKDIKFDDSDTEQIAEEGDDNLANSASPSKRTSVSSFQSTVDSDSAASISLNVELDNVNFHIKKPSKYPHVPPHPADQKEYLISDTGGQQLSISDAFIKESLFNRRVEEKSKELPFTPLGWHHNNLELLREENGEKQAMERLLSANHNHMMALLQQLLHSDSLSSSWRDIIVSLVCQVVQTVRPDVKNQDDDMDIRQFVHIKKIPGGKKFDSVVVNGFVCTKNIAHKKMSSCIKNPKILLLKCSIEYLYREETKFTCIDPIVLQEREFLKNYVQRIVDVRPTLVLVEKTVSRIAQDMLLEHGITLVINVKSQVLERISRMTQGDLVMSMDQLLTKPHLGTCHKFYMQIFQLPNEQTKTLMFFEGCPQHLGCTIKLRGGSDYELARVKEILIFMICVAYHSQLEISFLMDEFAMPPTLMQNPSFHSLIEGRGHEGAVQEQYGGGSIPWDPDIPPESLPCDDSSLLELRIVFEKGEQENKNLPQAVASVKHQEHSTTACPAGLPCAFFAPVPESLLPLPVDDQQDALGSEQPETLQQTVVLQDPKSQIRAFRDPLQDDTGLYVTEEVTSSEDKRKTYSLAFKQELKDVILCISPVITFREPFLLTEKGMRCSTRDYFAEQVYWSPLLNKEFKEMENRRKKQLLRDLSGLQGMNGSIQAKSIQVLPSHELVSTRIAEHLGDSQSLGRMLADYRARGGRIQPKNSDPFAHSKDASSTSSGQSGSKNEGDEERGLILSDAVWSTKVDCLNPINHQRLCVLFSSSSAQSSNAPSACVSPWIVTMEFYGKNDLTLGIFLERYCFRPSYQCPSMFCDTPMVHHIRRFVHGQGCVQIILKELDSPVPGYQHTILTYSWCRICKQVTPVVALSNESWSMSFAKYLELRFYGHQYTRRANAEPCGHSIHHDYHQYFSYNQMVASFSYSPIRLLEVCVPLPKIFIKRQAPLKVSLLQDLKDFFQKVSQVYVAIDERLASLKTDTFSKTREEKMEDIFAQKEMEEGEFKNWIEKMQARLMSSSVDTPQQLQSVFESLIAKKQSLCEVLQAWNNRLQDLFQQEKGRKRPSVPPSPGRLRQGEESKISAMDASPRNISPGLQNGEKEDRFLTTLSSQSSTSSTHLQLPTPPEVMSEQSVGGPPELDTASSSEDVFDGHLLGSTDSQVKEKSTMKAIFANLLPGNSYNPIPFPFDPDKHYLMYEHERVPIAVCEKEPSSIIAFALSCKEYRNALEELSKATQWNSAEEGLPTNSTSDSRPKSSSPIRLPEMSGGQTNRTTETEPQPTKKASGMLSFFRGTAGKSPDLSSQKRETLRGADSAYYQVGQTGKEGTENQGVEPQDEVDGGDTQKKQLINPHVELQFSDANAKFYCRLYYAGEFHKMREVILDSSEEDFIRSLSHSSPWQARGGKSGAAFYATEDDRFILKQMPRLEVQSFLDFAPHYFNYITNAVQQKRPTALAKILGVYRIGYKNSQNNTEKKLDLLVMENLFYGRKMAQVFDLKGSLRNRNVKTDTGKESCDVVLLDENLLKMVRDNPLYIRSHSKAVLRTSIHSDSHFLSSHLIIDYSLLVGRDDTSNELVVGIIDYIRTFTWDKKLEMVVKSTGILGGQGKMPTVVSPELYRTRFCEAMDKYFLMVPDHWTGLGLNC

IC50	SMILES
4390 nM	CC(C)NC(=O)c1cc2nc(-n3cc(-c4ccccc4)cn3)cc(N3CCOCC3)n2n1 [Compound 80, N-isopropyl-7-morpholino-5-(4-phenylpyrazol-1-yl)pyrazolo[1,5-a]pyrimidine-2-carboxamide]
4390 nM	Cc1cccc(-c2ccn(-c3cc(N4CCOCC4)n4nc(-c5cc(C)n(CCN(C)C)n5)cc4n3)n2)n1 [Compound 94, N,N-dimethyl-2-[5-methyl-3-[5-[3-(6-methyl-2-pyridyl)pyrazol-1-yl]-7-morpholino-pyrazolo[1,5-a]pyrimidin-2-yl]pyrazol-1-yl]ethanamine]
6120 nM	Cc1cccc(-c2cnn(-c3cc(N4CCOCC4)n4nc(-c5cnc(N)nc5)cc4n3)c2)c1 [Compound 60, 5-[7-morpholino-5-[4-(m-tolyl)pyrazol-1-yl]pyrazolo[1,5-a]pyrimidin-2-yl]pyrimidin-2-amine]
2600 nM	c1cc(-c2cnn(-c3cc(N4CCOCC4)n4nc(-c5ccncc5)cc4n3)c2)ccn1 [Example 11, 4-[2-(4-pyridyl)-5-[4-(4-pyridyl)pyrazol-1-yl]pyrazolo[1,5-a]pyrimidin-7-yl]morpholine]
41.3 nM	Cc1cccc(-c2ccn(-c3cc(N4CCOCC4)n4nc(C(=O)N[C@H]5CCN(C)C5)cc4n3)n2)c1 [Compound 48, N-[(3S)-1-methylpyrrolidin-3-yl]-7-morpholino-5-[3-(m-tolyl)pyrazol-1-yl]pyrazolo[1,5-a]pyrimidine-2-carboxamide]
1590 nM	O=C(NCC1COC1)c1cc2nc(-n3ccc(-c4ccccc4)n3)cc(N3CCOCC3)n2n1 [Compound 76, 7-morpholino-N-(oxetan-3-ylmethyl)-5-(3-phenylpyrazol-1-yl)pyrazolo[1,5-a]pyrimidine-2-carboxamide]
126 nM	Cc1cccc(-c2ccn(-c3cc(N4CCOCC4)n4nc(C(=O)NC5CCN(C)CC5)cc4n3)n2)c1 [Compound 54, N-(1-methyl-4-piperidyl)-7-morpholino-5-[3-(m-tolyl)pyrazol-1-yl]pyrazolo[1,5-a]pyrimidine-2-carboxamide]
550 nM	Cc1cccc(-c2cc(Nc3cc(N4CCOCC4)n4nc(-c5ccncc5)cc4n3)[nH]n2)c1 [Example 4, 7-morpholino-N-[3-(m-tolyl)-1H-pyrazol-5-yl]-2-(4-pyridyl)pyrazolo[1,5-a]pyrimidin-5-amine, Hydrogen Chloride Salt]
> 10000 nM	Clc1cccc(-c2ccn(-c3cc(N4CCOCC4)n4nc(-c5cccnc5)cc4n3)n2)c1 [Compound 105, 4-[5-[3-(3-chlorophenyl)pyrazol-1-yl]-2-(3-pyridyl)pyrazolo[1,5-a]pyrimidin-7-yl]morpholine]
68.1 nM	c1ccc(-c2ccn(-c3cc(N4CCOCC4)n4nc(-c5cccnc5)cc4n3)n2)cc1 [Compound 64, 4-[5-(3-phenylpyrazol-1-yl)-2-(3-pyridyl)pyrazolo[1,5-a]pyrimidin-7-yl]morpholine]
2.4 nM	Cc1cccc(-c2ccn(-c3cc(N4CCOCC4)n4nc(-c5ccn(C)n5)cc4n3)n2)c1 [Compound 61, 4-[2-(1-methylpyrazol-3-yl)-5-[3-(m-tolyl)pyrazol-1-yl]pyrazolo[1,5-a]pyrimidin-7-yl]morpholine]
112 nM	Cc1cccc(-c2ccn(-c3cc(N4CCOCC4)n4nc(C(=O)N[C@@H]5CCN(C)C5)cc4n3)n2)c1 [Compound 49, N-[(3R)-1-methylpyrrolidin-3-yl]-7-morpholino-5-[3-(m-tolyl)pyrazol-1-yl]pyrazolo[1,5-a]pyrimidine-2-carboxamide]
441 nM	c1ccc(-c2cnn(-c3cc(N4CCOCC4)n4nc(-c5ccccn5)cc4n3)c2)cc1 [Compound 78, 4-[5-(4-phenylpyrazol-1-yl)-2-(2-pyridyl)pyrazolo[1,5-a]pyrimidin-7-yl]morpholine]
213 nM	Cc1cccc(-c2ccn(-c3cc(N4CCOCC4)n4nc(C(=O)N(C)C5CCCC5)cc4n3)n2)c1 [Example 37, N-cyclopentyl-N-methyl-7-morpholino-5-(3-(m-tolyl)-1H-pyrazol-1-yl)pyrazolo[1,5-a]pyrimidine-2-carboxamide]
752 nM	c1ccc(-c2ccn(-c3cc(N4CCOCC4)n4nc(-c5cncnc5)cc4n3)n2)cc1 [Compound 69, 4-[5-(3-phenylpyrazol-1-yl)-2-pyrimidin-5-yl-pyrazolo[1,5-a]pyrimidin-7-yl]morpholine]
> 10000 nM	Cc1cc(-c2ccn(-c3cc(N4CCOCC4)n4nc(-c5cc(C)n(CCN(C)C)n5)cc4n3)n2)ccn1 [Compound 96, N,N-dimethyl-2-[5-methyl-3-[5-[3-(2-methyl-4-pyridyl)pyrazol-1-yl]-7-morpholino-pyrazolo[1,5-a]pyrimidin-2-yl]pyrazol-1-yl]ethanamine]
261 nM	c1ccc(-c2ccn(-c3cc(N4CCOCC4)n4nc(-c5cc[nH]n5)cc4n3)n2)cc1 [Compound 67, 4-[5-(3-phenylpyrazol-1-yl)-2-(1H-pyrazol-3-yl)pyrazolo[1,5-a]pyrimidin-7-yl]morpholine]
19.9 nM	Brc1cccc(-c2ccn(-c3cc(N4CCOCC4)n4nc(-c5cccnc5)cc4n3)n2)c1 [Compound 106, 4-[5-[3-(3-bromophenyl)pyrazol-1-yl]-2-(3-pyridyl)pyrazolo[1,5-a]pyrimidin-7-yl]morpholine]
1350 nM	Cc1cccc(-c2ccn(-c3cc(N4CCOCC4)n4nc(-c5cccnc5)cc4n3)n2)n1 [Compound 108, 4-[5-[3-(6-methyl-2-pyridyl)pyrazol-1-yl]-2-(3-pyridyl)pyrazolo[1,5-a]pyrimidin-7-yl]morpholine]
693 nM	c1ccc(-c2ccn(-c3cc(N4CCOCC4)n4nc(-c5ncccn5)cc4n3)n2)cc1 [Compound 63, 4-[5-(3-phenylpyrazol-1-yl)-2-pyrimidin-2-yl-pyrazolo[1,5-a]pyrimidin-7-yl]morpholine]
6690 nM	Cc1ccccc1-c1cc(N)n(-c2cc(N3CCOCC3)n3nc(-c4ccncc4)cc3n2)n1 [Example 8, 1-(7-morpholino-2-(pyridin-4-yl)pyrazolo[1,5-a]pyrimidin-5-yl)-3-(o-tolyl)-1H-pyrazol-5-amine]
127 nM	Cc1cc(-c2cc3nc(-n4ccc(-c5ccccc5)n4)cc(N4CCOCC4)n3n2)nn1CCN(C)C [Compound 99, N,N-dimethyl-2-[5-methyl-3-[7-morpholino-5-(3-phenylpyrazol-1-yl)pyrazolo[1,5-a]pyrimidin-2-yl]pyrazol-1-yl]ethanamine]
63.3 nM	Cc1cccc(-c2ccn(-c3cc(N4CCOCC4)n4nc(C(=O)NC5COC5)cc4n3)n2)c1 [Example 42, 7-morpholino-N-(oxetan-3-yl)-5-(3-(m-tolyl)-1H-pyrazol-1-yl)pyrazolo[1,5-a]pyrimidine-2-carboxamide]
> 10000 nM	Cc1cccc(-c2cnn(-c3cc(N4CCOCC4)n4nc(-c5ccncc5)cc4n3)c2)c1 [Example 10, 4-[5-[4-(m-tolyl)pyrazol-1-yl]-2-(4-pyridyl)pyrazolo[1,5-a]pyrimidin-7-yl]morpholine]
> 10000 nM	Cc1cc(-c2cc3nc(-n4ccc(-c5ccncc5)n4)cc(N4CCOCC4)n3n2)nn1CCN(C)C [Compound 93, N,N-dimethyl-2-[5-methyl-3-[7-morpholino-5-[3-(4-pyridyl)pyrazol-1-yl]pyrazolo[1,5-a]pyrimidin-2-yl]pyrazol-1-yl]ethanamine]
100 nM	c1ccc(-c2ccn(-c3cc(N4CCOCC4)n4nc(-c5nccs5)cc4n3)n2)cc1 [Compound 114, 4-[5-(3-phenylpyrazol-1-yl)-2-thiazol-2-yl-pyrazolo[1,5-a]pyrimidin-7-yl]morpholine]
967 nM	c1ccc(-c2cc(Nc3cc(N4CCOCC4)n4nc(-c5ccncc5)cc4n3)n[nH]2)cc1 [Example 2, 7-morpholino-N-(5-phenyl-1H-pyrazol-3-yl)-2-(4-pyridyl)pyrazolo[1,5-a]pyrimidin-5-amine]
> 20000 nM	Cc1cccc(-c2cnn(-c3cc(N4CCOCC4)n4nc(-c5cccnc5N)cc4n3)c2)c1 [Compound 59, 3-[7-morpholino-5-[4-(m-tolyl)pyrazol-1-yl]pyrazolo[1,5-a]pyrimidin-2-yl]pyridin-2-amine]
38.4 nM	Nc1cc(-c2ccccc2)nn1-c1cc(N2CCOCC2)n2nc(-c3ccncc3)cc2n1 [Example 7, 1-(7-morpholino-2-(pyridin-4-yl)pyrazolo[1,5-a]pyrimidin-5-yl)-3-phenyl-1H-pyrazol-5-amine]
